System: cultured cardiomyocytes
Test: Pulsations of cultured cardiomyocytes before and after drug administration, by motion detection on moving images (drug evaluation apparatus)
Type: cell-based
Details: for interval / timing of the pulsations (peak interval, rhythm of the pulsations): before vs after drug administration (after a predetermined time elapses), predetermined part of the observation region
Method: FIG. 24 is a block diagram illustrating a main configuration example of a drug evaluation apparatus. The drug evaluation apparatus 1300 illustrated in FIG. 24 is an apparatus that evaluates the impact (effects, side effects, and the like) of a drug using the motions of the cultured cardiomyocytes 500 to which the drug is administered.
The imaging unit 1101 images the cultured cardiomyocytes 500 before drug administration and after drug administration.
More specifically, the evaluation index data generating unit 1303 performs, for example, between frame images of the evaluation object image data which are the moving images of the cultured cardiomyocytes 500, motion detection (generation of motion vectors) of the cultured cardiomyocytes 500 for each of the blocks which are partial regions into which the entire region of the frame image is divided. That is, the evaluation index data generating unit 1303 performs the motion detection of each of the blocks for a predetermined duration (for a predetermined number of frames). This duration may be a time of the moving images imaged by the imaging unit 1101 or may be shorter than the time.
The evaluation index data generating unit 1303 further obtains a motion amount (the length of the motion vector) of each of the generated motion vectors. That is, the evaluation index data generating unit 1303 generates the motion amounts of each of the frames of each of the blocks for a predetermined duration.
When the motion amounts of the frames of a certain block obtained by the evaluation index data generating unit 1303 are arranged in time series, for example, the graph shown in FIG. 25 is obtained. FIG. 25 is a diagram showing a form of a change in the motion amount of a certain block with respect to time obtained by the evaluation index data generating unit 1303, that is, an example of a form of the pulsations of cells.
In the graph of FIG. 25, the horizontal axis represents the elapsed time (the number of frames), and the vertical axis represents the motion amount (pixels/frame). A curve 1311 (before) represents the pulsations of the cultured cardiomyocytes 500 before drug administration, and a curve 1312 (after) represents the pulsations of the cultured cardiomyocytes 500 after drug administration. In addition, in the graph of FIG. 25, a waveform of a single pulsation (a contraction and a relaxation) is shown.
The pulsations of cardiomyocytes include contractions and relaxations, and in the curve 1311 and the curve 1312, the crest formed on the left means a “contraction” operation, and the crest formed on the right means a “relaxation” operation. A point P1-1 represents the peak of the contraction of the curve 1311 (before), and a point P1-2 represents the peak of the relaxation of the curve 1311 (before). A point P2-1 represents the peak of the contraction of the curve […] (after), and a point P2-2 represents the peak of the relaxation of the curve 1312 (after).
FIG. 31 is a diagram showing an example of forms of pulsations before and after drug administration. All the 8 graphs shown in FIG. 31 are observation results of forms (changes in the motion amount absolute value with respect to time) of pulsations of a predetermined part in an observation region of the cultured cardiomyocytes 500. The horizontal axis represents the time (sec), and the vertical axis represents the motion amount absolute value (pixcel/frame) between frames. That is, the amplitudes shown in each of the graphs represents the pulsations of the cultured cardiomyocytes 500.
The graphs on the left of FIG. 31 represent forms of the pulsations before drug administration, and the graphs on the right represent forms of the pulsations after drug administration (after a predetermined time elapses after the administration).
In addition, FIG. 32 is a diagram showing an example of forms of variations of the pulsations before and after drug administration. […]

[1] = FIG. 31, before vs after drug administration
[2] = FIG. 32, overlapped pulsations after drug administration

Row | motion amount absolute value at the peaks [1] | waveform of the relaxation (the width of the pulsation) [1] | interval / timing of the pulsations (peak interval, rhythm of the pulsations) (FIG. 31) | variations of the height of the peak in the waveform of the contraction [2] | variations of the pulsations (overlapped waveforms of repeated pulsations) (FIG. 32, before vs after drug administration) | SMILES | variations of the waveform of the relaxation (magnitude, time and number of appearance of the peak, width (QT elongation)) [2]
1 | become unstable (have variations) | – | become unstable (have variations) | has significant variations | – | CC1(C)[C@@H](O)CC[C@]2(C)[C@H]3C(=O)C=C4[C@@H]5C[C@@](C)(C(=O)O)CC[C@]5(C)CC[C@@]4(C)[C@]3(C)CC[C@@H]12 [18-β-glycyrrhetinic acid] | –
2 | – | – | does not have a significant impact | – | do not have significant variations | CC(=O)Oc1ccccc1C(=O)O [aspirin, acetylsalicylic acid] | –

Row | SMILES | motion amount absolute value at the peaks [1] | waveform of the relaxation (the width of the pulsation) [1] | interval / timing of the pulsations (peak interval, rhythm of the pulsations) (FIG. 31) | variations of the height of the peak in the waveform of the contraction [2] | variations of the pulsations (overlapped waveforms of repeated pulsations) (FIG. 32, before vs after drug administration) | variations of the waveform of the relaxation (magnitude, time and number of appearance of the peak, width (QT elongation)) [2]
3 | CC(C)NCC(O)c1ccc(NS(C)(=O)=O)cc1 (racemic) [DL-sotalol] | becomes unstable (has variations) | changes (becomes unstable) | the timing of the pulsation becomes unstable | also has significant variations | – | has significant variations

Source: US10311582B2, “Image processing apparatus and method for evaluating objects in an image” (Sony Corporation, priority 2010, dated 2019)
